Experimental data published in US7608615B2, “Pyrrolo[2,1-C][1,4]benzodiazepine hybrids and a process for the preparation thereof” (Council of Scientific & Industrial Research, priority 2006, dated 2009).

What was measured:
Type in all cases: cell-based, human
Zr-75-1 = test: in vitro cytotoxicity, Zr-75-1 breast cancer cells; conditions: for percentage cell growth (Activity status in terms of IC50 values) Zr-75-1 Breast: 48 h continuous drug exposure, percent of cell growth relative to untreated control cells; for suppressing Zr-25-1 cell growth: suppression of cell growth, 48 h exposure
Experimental: (§1) Cytotoxicity: The compounds 7-methoxy-8-[3-(6-chloro-2-oxo-4-phenyl-1,2-dihydro-1-quinazolinyl)propoxy]-(11aS)-1,2,3,11a-tetrahydro-5H-pyrrolo[2,1-c][1,4]benzodiazepine-5-one and 7-methoxy-8-[5-(6-chloro-2-oxo-4-phenyl-1,2-dihydro-1-quinazolinyl)pentyloxy]-(11aS)-1,2,3,11a-tetrahydro-5H-pyrrolo [2,1-c][1,4]benzodiazepine-5-one were evaluated for in vitro anticancer activity against nine human tumour cells derived from six cancer types (colon, prostate, oral, lung, cervix and breast cancer) as shown in (Table 1).
(§2) Compounds 5d and 5f have been evaluated for their in vitro cytotoxicity in selected human cancer cell lines of colon (Colo205), lung (Hop-62), cervix (SiHa), prostate (DU145, PC3), oral (DWD, HT1080), and breast (MCF7, Zr-75-1) origin. A protocol of 48 h continuous drug exposure and an […] protein assay has been used to estimate cell viability or growth. The results are expressed as percent of cell growth determined relative to that of untreated control cells (Table 1).

DWD = test: in vitro cytotoxicity, DWD oral cancer cells; conditions: for percentage cell growth (Activity status in terms of IC50 values) DWD Oral: 48 h continuous drug exposure, percent of cell growth relative to untreated control cells; for suppress DWD cell growth: suppression of cell growth, 48 h exposure
Experimental: as §1, §2

Hop62 = test: in vitro cytotoxicity, Hop62 lung cancer cells; conditions: for percentage cell growth (Activity status in terms of IC50 values) Hop62 Lung: 48 h continuous drug exposure, percent of cell growth relative to untreated control cells; for suppress Hop62 cell growth: suppression of cell growth, 48 h exposure
Experimental: as §1, §2

HT1080 = test: in vitro cytotoxicity, HT1080 oral cancer cells; conditions: for percentage cell growth (Activity status in terms of IC50 values) HT1080 Oral: 48 h continuous drug exposure, percent of cell growth relative to untreated control cells; for suppress HT1080 cell growth: suppression of cell growth, 48 h exposure
Experimental: as §1, §2

PC3 = test: in vitro cytotoxicity, PC3 prostate cancer cells; conditions: for percentage cell growth (Activity status in terms of IC50 values) PC3 Prostate: 48 h continuous drug exposure, percent of cell growth relative to untreated control cells; for suppress PC3 cell growth: suppression of cell growth, 48 h exposure
Experimental: as §1, §2

MCF7 = test: in vitro cytotoxicity, MCF7 breast cancer cells; conditions: for percentage cell growth (Activity status in terms of IC50 values) MCF7 Breast: 48 h continuous drug exposure, percent of cell growth relative to untreated control cells; for suppress MCF7 cell growth: suppression of cell growth, 48 h exposure
Experimental: as §1, §2

Colo205 = test: in vitro cytotoxicity, Colo205 colon cancer cells; conditions: for percentage cell growth (Activity status in terms of IC50 values) Colo205 Colon: 48 h continuous drug exposure, percent of cell growth relative to untreated control cells; for suppress Colo205 cell growth: suppression of cell growth, 48 h exposure
Experimental: as §1, §2

SiHa = test: in vitro cytotoxicity, SiHa cervix cancer cells; conditions: for percentage cell growth (Activity status in terms of IC50 values) SiHa Cervix: 48 h continuous drug exposure, percent of cell growth relative to untreated control cells; for suppressing the SiHa cell growth: suppression of cell growth, 48 h exposure
Experimental: as §1, §2

DU145 = test: in vitro cytotoxicity, DU145 prostate cancer cells; conditions: for percentage cell growth (Activity status in terms of IC50 values) DU145 Prostate: 48 h continuous drug exposure, percent of cell growth relative to untreated control cells; for suppress DU145 cell growth: suppression of cell growth, 48 h exposure
Experimental: as §1, §2

SMILES: COc1cccc2c1C(=O)c1c(O)c3c(c(O)c1C2=O)C[C@@](O)(C(=O)CO)C[C@@H]3O[C@H]1C[C@H](N)[C@H](O)[C@H](C)O1 [ADR, adriamycin, reference compound]
- percentage cell growth (Activity status in terms of IC50 values) Zr-75-1 Breast (Zr-75-1): 5%
- percentage cell growth (Activity status in terms of IC50 values) DWD Oral (DWD): 2%
- percentage cell growth (Activity status in terms of IC50 values) Hop62 Lung (Hop62): 5%
- percentage cell growth (Activity status in terms of IC50 values) HT1080 Oral (HT1080): 4%
- percentage cell growth (Activity status in terms of IC50 values) PC3 Prostate (PC3): 5%
- percentage cell growth (Activity status in terms of IC50 values) MCF7 Breast (MCF7): 5%
- percentage cell growth (Activity status in terms of IC50 values) Colo205 Colon (Colo205): 5%
- percentage cell growth (Activity status in terms of IC50 values) SiHa Cervix (SiHa): 5%
- percentage cell growth (Activity status in terms of IC50 values) DU145 Prostate (DU145): 6%

SMILES: COc1cc2c(cc1OCCCn1c(=O)nc(-c3ccccc3)c3cc(Cl)ccc31)N=C[C@@H]1CCCN1C2=O [Compound 5d, 7-Methoxy-8-[3-(6-chloro-2-oxo-4-phenyl-1,2-dihydro-1-quinazolinyl)propoxy]-(11aS)-1,2,3,11a-tetrahydro-5H-pyrrolo[2,1-c][1,4]benzodiazepine-5-one]
- percentage cell growth (Activity status in terms of IC50 values) Zr-75-1 Breast (Zr-75-1): 8%
- suppressing Zr-25-1 cell growth (Zr-75-1): 92%
- percentage cell growth (Activity status in terms of IC50 values) DWD Oral (DWD): 5%
- suppress DWD cell growth (DWD): 95%
- percentage cell growth (Activity status in terms of IC50 values) Hop62 Lung (Hop62): 6%
- suppress Hop62 cell growth (Hop62): 94%
- percentage cell growth (Activity status in terms of IC50 values) HT1080 Oral (HT1080): 9%
- suppress HT1080 cell growth (HT1080): 91%
- percentage cell growth (Activity status in terms of IC50 values) PC3 Prostate (PC3): 11%
- suppress PC3 cell growth (PC3): 89%
- percentage cell growth (Activity status in terms of IC50 values) MCF7 Breast (MCF7): 12%
- suppress MCF7 cell growth (MCF7): 88%
- percentage cell growth (Activity status in terms of IC50 values) Colo205 Colon (Colo205): 8%
- suppress Colo205 cell growth (Colo205): 92%
- percentage cell growth (Activity status in terms of IC50 values) SiHa Cervix (SiHa): 16%
- suppressing the SiHa cell growth (SiHa): 84%
- percentage cell growth (Activity status in terms of IC50 values) DU145 Prostate (DU145): 8%
- suppress DU145 cell growth (DU145): 92%

SMILES: COc1cc2c(cc1OCCCCCn1c(=O)nc(-c3ccccc3)c3cc(Cl)ccc31)N=C[C@@H]1CCCN1C2=O [Compound 5f, 7-Methoxy-8-[5-(6-chloro-2-oxo-4-phenyl-1,2-dihydro-1-quinazolinyl)pentyloxy]-(11aS)-1,2,3,11a-tetrahydro-5H-pyrrolo[2,1-c][1,4]benzodiazepine-5-one]
- percentage cell growth (Activity status in terms of IC50 values) Zr-75-1 Breast (Zr-75-1): 8%
- suppressing Zr-25-1 cell growth (Zr-75-1): 92%
- percentage cell growth (Activity status in terms of IC50 values) DWD Oral (DWD): 5%
- suppress DWD cell growth (DWD): 95%
- percentage cell growth (Activity status in terms of IC50 values) Hop62 Lung (Hop62): 5%
- suppress Hop62 cell growth (Hop62): 95%
- percentage cell growth (Activity status in terms of IC50 values) HT1080 Oral (HT1080): 8%
- suppress HT1080 cell growth (HT1080): 92%
- percentage cell growth (Activity status in terms of IC50 values) PC3 Prostate (PC3): 7%
- suppress PC3 cell growth (PC3): 93%
- percentage cell growth (Activity status in terms of IC50 values) MCF7 Breast (MCF7): 8%
- suppress MCF7 cell growth (MCF7): 92%
- percentage cell growth (Activity status in terms of IC50 values) Colo205 Colon (Colo205): 15%
- suppress Colo205 cell growth (Colo205): 85%
- percentage cell growth (Activity status in terms of IC50 values) SiHa Cervix (SiHa): 16%
- suppressing the SiHa cell growth (SiHa): 84%
- percentage cell growth (Activity status in terms of IC50 values) DU145 Prostate (DU145): 10%
- suppress DU145 cell growth (DU145): 90%
